# Test results taken from US20260224555A1, “NEW PHENYLQUINOLONE COMPOUND HAVING ANTIBACTERIAL AND ANTI-CANCER FUNCTIONS AND PREPARATION THEREOF” (AlphaMol Science Ltd (Shanghai), priority 2022, published 2026).
# Read-outs that look alike come from different tables or passages of the source.
# How the values were obtained:
# [1] = tested on: methicillin-resistant Staphylococcus aureus; type: in vivo, Kunming mice; details: for reduction of necrosis area compared with the control group: 4 consecutive days, MRSA skin infection in mice
# Protocol: Kunming mice (20±2 g) were anesthetized with chloral hydrate and shaved, and then 50 μL of 4×10^7 CFU/mL of methicillin-resistant Staphylococcus aureus was subcutaneously injected. One day later, 100 μL of 0.02, 2 and 200 mg/kg of Example 34 were subcutaneously injected respectively, and 100 μL of normal saline was injected for the control group. The drug was administered for consecutive 4 days, and mice were euthanized on the 5th day, and the area of abscess was measured.
# S. aureus ATCC 43300 = experiment: In vitro antibacterial activity assay (MIC, broth dilution); type: cell-based; details: Staphylococcus aureus
# From the text: (§1) The method used to indicate the activity of the compounds in this example is to record the minimum inhibitory concentration (MIC) of the compounds against bacteria. The specific experimental method is as follows:
# (§2) 1. The bacterial liquid cultured from a single colony was taken, and diluted into autoclaved CAMHB broth in a ratio of 1:1000, and mixed well.
# (§3) 2. The prepared drug solution was filtered through a sterile 0.22 µm syringe filter and placed in a sterile EP tube for later use.
# (§4) 3. A 96-well plate was taken, and 20 µL of drug solution ([…]) was added to each well in the first column of the 96-well plate. Then, 180 µL of diluted bacterial liquid was added and mixed well (Perform 3 replicate rows for each drug).
# (§5) The same process was performed for the hydrochloride drug.
# (§6) 4. 100 μL of diluted bacterial liquid was added to each well in the remaining 11 columns of the 96-well plate. Drugs are the same as above.
# (§7) 5. Serial dilution: 100 μL of liquid was taken from the first column to the second column, mixed well, then 100 μL of liquid was taken from the second column to the third column, mixed well, and so on, sequentially diluting down to the last column (column 12). After mixing column 12 well, 100 μL of liquid thereof was discarded. The drug concentration in each well was decreased by two-fold serially (the concentration in the first well is 40 μg/mL).
# (§8) 6. Blank CAMHB broth without added bacteria liquid was added to 3 blank wells in the 96-well plate, as negative control.
# (§9) 7. The diluted bacterial liquid was added to 3 blank wells in the 96-well plate, as positive control.
# (§10) 8. Incubated at 37° C. for 16 hours.
# (§11) 9. Results reading: the minimum inhibitory concentration is the minimum drug concentration at which no bacterial growth is visible to the naked eye and without turbidity.
# E. coli ATCC 25922 = experiment: as above; type: cell-based; details: Escherichia coli
# From the text: as §1, §2, §3, §4, §5, §6, §7, §8, §9, §10, §11
# Hela = experiment: In vitro anticancer activity test (MTT cell proliferation); type: cell-based; details: Homo sapiens, read-out: Hela Average inhibition rate %
# Protocol: The anticancer activity of the compounds was tested using an in vitro cancer cell tests. The specific test method is as follows:
# 1. Cell recovery and culture method: the cryovial was taken out from the liquid nitrogen container firstly, soaked directly in 37° C. warm water, and shaked from time to time to let it thaw as soon as possible. Then, the cryovial was transferred to a clean bench, and the lid was open. The cell suspension was taken into a centrifuge tube using a rubber-tipped dropper and more than 10 times the culture medium was added, mixed well, and centrifuged at 50 g for 5 minutes. Then, the supernatant was discarded, complete culture medium containing 10% fetal bovine serum was added to resuspend the cells, the cells was counted, the cell density was adjusted, and then inoculated into a culture bottle. The culture bottle was placed in a cell culture incubator at 5% CO2 and 37° C. The complete culture medium was replaced once the next day and the culture was continued.
# 2. Cell passaging method: adherent cells in the logarithmic growth phase were placed in a clean bench, the original culture medium was discarded, and washed three times with 1×PBS. An appropriate amount of 0.25% trypsin digestion solution was added to moisten the cells, and then the trypsin solution was aspirated. The cells were placed in a cell culture incubator at 5% CO2 and 37° C. for digestion for a suitable time, and observed under a microscope. When 90% of the cells become round, the cells were moved immediately to the clean bench and complete culture medium was added to terminate digestion. Then, the cells were dislodged by pipetting up and down with a rubber-tipped dropper to single cells. The cells were counted, and the cell density was adjusted. The cells were inoculated into a suitable culture bottle or dish, added enough complete culture medium, and placed in a cell culture incubator at 5% CO2 and 37° C. for static culture.
# For suspension cells in the logarithmic phase, the original culture medium was directly centrifuged at 50 g for 5 minutes, the supernatant was discarded, and the cells were washed once with PBS and centrifuged. After discarding the supernatant, the complete culture medium was added and the cells were dispersed using a rubber-tipped dropper. The cells are counted, and the cell density was adjusted. The cells were inoculated into appropriate culture bottles or culture dishes, and sufficient complete culture medium was added, and the cells were cultured in a cell culture incubator at 5% CO2 and 37° C.
# 3. Cell proliferation assay: cells in good state in logarithmic phase were taken and appropriate amount of the cells was inoculated into 96-well plates according to the cell passage treatment method, with each well containing 180 μL complete medium. After the cells growth was recovered and the number of cells in each well is 5000±500, a drug was added for treatment.
# After drug treatment during the experimental time, MTT solution with a final concentration of 0.5 mg/mL was added to each well, and placed in a cell culture incubator at 5% CO2 and 37° C. to allow a fully reaction of MTT with cells. After 4 hours, the solution in the 96-well plate was discarded, 100 µL of DMSO was added, and shaked to dissolve the formazan precipitated at the bottom of the plate, and the absorbance value of samples was detected at a wavelength of 570 nm using a microplate reader. Calculation method of cell viability rate:
# Table 4 lists some compounds that have inhibitory effects against both of bacteria and cancer cells. In the table, the inhibitory effects against cancer cells are shown: the average proliferation inhibition rate (%) against cancer cells at the dosage of 40 μM.
# [2] = tested on: Staphylococcus aureus ATCC43300; experiment: Resistance test of bacteria against compounds (serial induction, 21 days); type: cell-based; details: period of 21 days, S. aureus ATCC43300
# Protocol: This example provides a resistance test of bacteria against compounds, and the specific experimental method is as follows.
# 1. […] It was ensured that among the 6 final concentrations of the drug diluted into the wells, some were higher than the original MIC of the bacteria and some were lower than the original MIC of the bacteria.
# 2. Preparation of bacterial liquid: 10 mL of culture medium was taken and added to a sterilized plate using a pipette, then 100 µL of the above-mentioned passaged bacterial liquid was added, and mixed well for later use.
# 3. The above-mentioned diluted bacterial liquid was taken and added to a 96-well plate using a pipette, 180 μL per well, 3 wells per group, 6 groups in total. 20 μL of drug solution was added to each well (note: it is necessary to replace the pipette tip each time the drug is added), so that the final drug concentrations were […], respectively. The well with 200 μL of diluted bacterial liquid was used as the positive control well, and the well with 200 μL of culture medium was used as the negative control well.
# The test object was Staphylococcus aureus (S. aureus).
# [3] = ATCC43300, Table 3, read-out: MIC S. aureus ATCC 43300
# [4] = ATCC25922, Table 3, read-out: MIC E. coli ATCC 25922
# [5] = ATCC43300, Table 4, read-out: S. aureus ATCC 43300 MIC
# [6] = ATCC25922, Table 4, read-out: E. coli ATCC 25922 MIC
# [7] = average proliferation inhibition rate at the dosage of 40 μM
MIC (S. aureus ATCC 43300; [3]) [µg/mL],MIC (E. coli ATCC 25922; [4]) [µg/mL],MIC (S. aureus ATCC 43300; [5]) [µg/mL],MIC (E. coli ATCC 25922; [6]) [µg/mL],Structure (SMILES),inhibition at 40 µM (Hela; [7]) [%],also measured
–,–,–,–,"O=C(O)c1cn(C2CC2)c2cc(-c3ccc(S(=O)(=O)NCCCCCCO)cc3)c(F)cc2c1=O [Example 29, 1-cyclopropyl-6-fluoro-7-(4-(N-(6-hydroxyhexyl)sulfamoyl)phenyl)-4-oxo-1,4-dihydroquinolin-3-carboxylic acid]",–,"reduction of necrosis area compared with the control group ([1]; 0.02 mg/kg subcutaneous): 78.09%; reduction of necrosis area compared with the control group ([1]; 2 mg/kg subcutaneous): 81.21%; antibacterial effect in skin infection model ([1]; (corresponding to 0.02 mg/kg, 200 mg/kg)): good antibacterial effect; observation at the subcutaneous administration site ([1]; mouse, in vivo, sc, 200 mg/kg): certain bleeding symptom in body surface appeared at the subcutaneous administration site"
0.1 to 1,0.1 to 1,–,–,Nc1cc(-c2nc3c(cc2F)c(=O)c(C(=O)O)cn3C2CC2)ccn1.O=CO [Example 56],–,–
0.1 to 1,0.1 to 1,–,–,O=C(O)c1cn(C2CC2)c2cc(-c3ccnc(NC(=O)C(F)(F)F)c3)c(F)cc2c1=O [Example 57],–,–
0.1 to 1,0.1 to 1,–,–,CS(=N)(=O)c1ccc(-c2cc3c(cc2F)c(=O)c(C(=O)O)cn3C2CC2)cc1 (centres unmarked) [Example 64],–,–
0.1 to 1,0.1 to 1,–,–,COc1cc(-c2c(F)cc3c(=O)c(C(=O)O)cn(C4CC4)c3c2OC)ccc1NC(C)=O [Example 66],–,–
0.1 to 1,0.1 to 1,–,–,CCn1cc(C(=O)O)c(=O)c2cc(OC)c(-c3ccc(N)nc3)c(C)c21 [Example 74],–,–
0.1 to 1,0.1 to 1,–,–,COc1c(-c2ncncn2)c(F)cc2c(=O)c(C(=O)O)cn(C3CC3)c12 [Example 77],–,–
≤ 0.1,0.1 to 1,≤ 1,≤ 1,CCCCCNS(=O)(=O)c1ccc(-c2c(F)cc3c(=O)c(C(=O)O)cn(C4CC4)c3c2OC)cc1 [Example 80],≥ 50,–
0.1 to 1,0.1 to 1,–,–,Nc1cnc(-c2cc3c(cc2F)c(=O)c(C(=O)O)cn3C2CC2)nc1 [Example 83],–,–
≤ 0.1,0.1 to 1,≤ 1,≤ 1,COc1c(-c2ccc([S+]([O-])CCO)cc2)c(F)cc2c(=O)c(C(=O)O)cn(C3CC3)c12 (centres unmarked) [Example 86],≥ 20,–
≤ 0.1,0.1 to 1,≤ 1,≤ 1,O=C(O)c1cn(C2CC2)c2c(Cl)c(-c3ccc(S(=O)(=O)NCCO)cc3)c(F)cc2c1=O [Example 89],≥ 20,–
0.1 to 1,0.1 to 1,–,–,Nc1cnc(-c2cc3c(cc2F)c(=O)c(C(=O)O)cn3C2CC2)cc1F [Example 91],–,–
–,–,–,–,CC(=O)Nc1ccc(-c2cc3c(cc2F)c(=O)c(C(=O)O)cn3C2CC2)nc1 [Example 93],–,"MIC (S. aureus ATCC 43300; ATCC43300, read-out: MIC S. aureus ATCC 43300): 0.1 to 1 µg/mL; MIC (S. aureus ATCC 43300; ATCC43300, read-out: S. aureus ATCC 43300 MIC): ≤ 1 µg/mL; MIC (E. coli ATCC 25922; ATCC25922, read-out: E. coli ATCC 25922 MIC): ≤ 1 µg/mL; MIC (E. coli ATCC 25922; ATCC25922, read-out: MIC E. coli ATCC 25922): 0.1 to 1 µg/mL; inhibition at 40 µM (Hela): ≥ 20%"
≤ 0.1,≤ 0.1,–,–,O=C(CCl)Nc1cnc(-c2cc3c(cc2F)c(=O)c(C(=O)O)cn3C2CC2)cn1 [Example 96],–,–
≤ 0.1,0.1 to 1,≤ 1,≤ 1,O=C(O)c1cn(C2CC2)c2cc(-c3ccc4c(c3)CNS4(=O)=O)c(F)cc2c1=O [Example 107],≥ 20,–
≤ 0.1,≤ 0.1,–,–,COc1c(-c2ccc(S(N)(=O)=O)c([N+](=O)[O-])c2)c(F)cc2c(=O)c(C(=O)O)cn(C3CC3)c12 [Example 110],–,–
0.1 to 1,0.1 to 1,–,–,N#Cc1cc(-c2cc3c(cc2F)c(=O)c(C(=O)O)cn3C2CC2)ccc1S(=O)(=O)NCCCC(F)(F)F [Example 111],–,–
≤ 0.1,≤ 0.1,≤ 1,≤ 1,O=C(O)c1cn(C2CC2)c2cc(-c3ccc4c(c3)S(=O)(=O)NC4)c(F)cc2c1=O [Example 113],≥ 20,–
0.1 to 1,0.1 to 1,–,–,C#CCNS(=O)(=O)c1ccc(-c2cc3c(cc2F)c(=O)c(C(=O)O)cn3C2CC2)cc1[N+](=O)[O-] [Example 116],–,–
≤ 0.1,1 to 8,≤ 1,≥ 1,CCCCCCCNS(=O)(=O)c1ccc(-c2cc3c(cc2F)c(=O)c(C(=O)O)cn3C2CC2)cn1 [Example 128],≥ 20,–
1 to 8,≤ 0.1,≥ 1,≤ 1,COc1c(-c2ccnc(CO)c2)c(F)cc2c(=O)c(C(=O)O)cn(C3CC3)c12 [Example 148],≥ 20,–
≤ 0.1,≤ 0.1,≤ 1,≤ 1,Nc1cc(-c2c(F)cc3c(=O)c(C(=O)O)cn(C4CC4)c3c2Cl)ccn1 [Example 151],≥ 20,–
–,–,–,–,CN[C@H](CC(C)C)C(=O)N[C@H]1C(=O)N[C@@H](CC(N)=O)C(=O)N[C@H]2C(=O)N[C@H]3C(=O)N[C@H](C(=O)N[C@H](C(=O)O)c4cc(O)cc(O)c4-c4cc3ccc4O)[C@H](O)c3ccc(c(Cl)c3)Oc3cc2cc(c3O[C@@H]2O[C@H](CO)[C@@H](O)[C@H](O)[C@H]2O[C@H]2C[C@](C)(N)[C@H](O)[C@H](C)O2)Oc2ccc(cc2Cl)[C@H]1O [vancomycin],–,MIC at the end of the resistance experiment [2]: 4 µg/mL
